Experimental findings from patent publication US20220280476A1, “KCNT1 INHIBITORS AND METHODS OF USE” (Praxis Precision Medicines, Inc., priority 2019, published 2022) are described below.

Where only a bound is given, the exact number is not on record here.

The test deals with T1, KCNT1 (KNa1.1, Slack) (Homo sapiens, UniProt Q5JUK3).
T1 construct: expressed in transfected cells; host or cells: HEK-TREX (tetracycline-inducible HEK cell line)
T1 sequence (Q5JUK3 1-1230): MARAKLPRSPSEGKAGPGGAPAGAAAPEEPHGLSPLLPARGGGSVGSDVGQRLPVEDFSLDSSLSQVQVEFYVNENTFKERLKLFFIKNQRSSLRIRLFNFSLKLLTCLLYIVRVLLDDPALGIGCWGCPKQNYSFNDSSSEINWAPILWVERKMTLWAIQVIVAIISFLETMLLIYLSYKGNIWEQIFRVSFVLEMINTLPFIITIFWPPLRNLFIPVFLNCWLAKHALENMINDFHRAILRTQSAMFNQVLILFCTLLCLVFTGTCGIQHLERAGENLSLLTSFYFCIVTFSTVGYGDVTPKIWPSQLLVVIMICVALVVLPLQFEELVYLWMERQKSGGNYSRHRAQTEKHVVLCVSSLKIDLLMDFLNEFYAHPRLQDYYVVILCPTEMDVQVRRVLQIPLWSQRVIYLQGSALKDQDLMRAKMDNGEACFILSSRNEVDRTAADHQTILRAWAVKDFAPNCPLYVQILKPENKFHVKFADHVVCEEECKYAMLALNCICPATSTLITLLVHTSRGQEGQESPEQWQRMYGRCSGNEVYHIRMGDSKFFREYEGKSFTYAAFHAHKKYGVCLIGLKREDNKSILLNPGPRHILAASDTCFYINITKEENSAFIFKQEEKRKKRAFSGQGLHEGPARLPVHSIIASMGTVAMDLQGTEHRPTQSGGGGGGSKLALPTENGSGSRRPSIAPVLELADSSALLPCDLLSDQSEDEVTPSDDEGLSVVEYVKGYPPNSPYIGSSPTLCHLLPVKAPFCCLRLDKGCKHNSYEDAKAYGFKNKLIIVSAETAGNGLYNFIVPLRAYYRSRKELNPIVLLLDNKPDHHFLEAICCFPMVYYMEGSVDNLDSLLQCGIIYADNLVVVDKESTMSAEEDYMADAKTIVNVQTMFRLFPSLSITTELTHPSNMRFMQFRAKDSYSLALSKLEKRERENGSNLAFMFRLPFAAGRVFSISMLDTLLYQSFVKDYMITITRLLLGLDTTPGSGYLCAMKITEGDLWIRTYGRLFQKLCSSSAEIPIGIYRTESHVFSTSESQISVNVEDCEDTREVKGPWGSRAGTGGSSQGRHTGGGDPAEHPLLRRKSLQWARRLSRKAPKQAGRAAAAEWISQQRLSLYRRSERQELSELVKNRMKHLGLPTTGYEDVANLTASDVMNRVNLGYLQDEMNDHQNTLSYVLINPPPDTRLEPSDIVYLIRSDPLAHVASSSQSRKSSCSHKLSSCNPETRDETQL
The test can be described thus: KCNT1-WT-Basal patch clamp assay (SyncroPatch 384PE, HEK-TREX inducible cell line). The test is classed as cell-based. The settings on record: tetracycline inducible HEK-TREX cells; perforated patch; holding -80 mV, 100 ms step to 0 mV; room temperature; read-out: KCNT1 WB IC50. As for the experimental part: KCNT1-WT-Basal—Patch Clamp Assay
Inhibition of KCNT1 (KNa1.1, Slack) was evaluated using a tetracycline inducible cell line (HEK-TREX). Currents were recorded using the SyncroPatch 384PE automated, patch clamp system. Pulse generation and data collection were performed with PatchController384 V1.3.0 and DataController384 V1.2.1 (Nanion Technologies). The access resistance and apparent membrane capacitance were estimated using built-in protocols. Current were recorded in perforated patch mode (10 μM escin) from a population of cells. The cells were lifted, triturated, and resuspended at 800,000 cells/ml. The cells were allowed to recover in the cell hotel prior to experimentation. Currents were recorded at room temperature. The external solution contained the following (in mM): NaCl 105, NMDG 40, KCl 4, MgCl2 1, CaCl2 5 and HEPES 10 (pH=7.4, Osmolarity ˜300 mOsm). The extracellular solution was used as the wash, reference and compound delivery solution. The internal solution contained the following (in mM): NaCl 70, KF 70, KCl 10, EGTA 5, HEPES 5 and Escin 0.01 (pH=7.2, Osmolarity ˜295 mOsm). Escin is made at a 5 mM stock in water, aliquoted, and stored at −20° C. The compound plate was created at 2× concentrated in the extracellular solution. The compound was diluted to 1:2 when added to the recording well. The amount of DMSO in the extracellular solution was held constant at the level used for the highest tested concentration. A holding potential of −80 mV with a 100 ms step to 0 mV was used. Mean current was measured during the step to 0 mV. […] The average mean current from 3 sweeps was calculated and the % inhibition of each compound was calculated. The % Inhibition as a function of the compound concentration was fit with a Hill equation to derive IC50, slope, min and max parameters. If KCNT1 inhibition was less than 50% at the highest tested concentration or if an IC50 could not be calculated, then a percent inhibition was reported in place of the IC50.

Consider `Cc1cc(S(N)(=O)=O)sc1C(=O)N[C@@H]1CCc2cc(Cl)ccc21` [Compound I-10], for which the IC50 was in the range of 1 to 20 µM. As to `Cc1oc(S(N)(=O)=O)cc1C(=O)N[C@@H]1CCc2cc(Cl)ccc21` [Compound I-11], the IC50 was at least 20 µM. On to `Cc1cc(S(N)(=O)=O)oc1C(=O)N[C@@H]1CCc2cc(Cl)ccc21` [Compound I-12], for which the IC50 was at least 20 µM. Turning to `Cn1c(C(=O)N[C@@H]2CCc3cc(Cl)ccc32)ccc1S(N)(=O)=O` [Compound I-13], the half-maximal inhibitory concentration (IC50) is at least 20 µM. `NS(=O)(=O)c1c[nH]c(C(=O)N[C@@H]2CCc3cc(Cl)ccc32)c1` [Compound I-14]: the IC50 was at least 20 µM. For `CN(C)S(=O)(=O)c1ccc(C(=O)N[C@@H]2CCc3cc(Cl)ccc32)s1` [Compound I-15], the IC50 was at most 1 µM. Then `CNS(=O)(=O)c1ccc(C(=O)N[C@@H]2CCc3cc(Cl)ccc32)s1` [Compound I-16], with at most 1 µM; and `O=C(N[C@@H]1CCc2cc(Cl)ccc21)c1ccc(S(=O)(=O)N2CCCC2)s1` [Compound I-17], with at most 1 µM; and `CS(=O)(=O)c1ccc(C(=O)N[C@@H]2CCc3cc(Cl)ccc32)s1` [Compound I-18], with at most 1 µM. For `O=C(N[C@@H]1CCc2cc(Cl)ccc21)c1ccc(S(=O)(=O)N2CCC2)s1` [Compound I-19], the IC50 is at most 1 µM. Under `NC(=O)c1ccc(C(=O)N[C@@H]2CCc3cc(Cl)ccc32)s1` [Compound I-20] stands at most 1 µM; under `O=C(N[C@@H]1CCc2cc(Cl)ccc21)c1ccc(S(=O)(=O)C2CC2)s1` [Compound I-21], at most 1 µM.

With `Cn1nc(C(F)(F)F)cc1C(=O)N[C@@H]1CCc2cc(Cl)ccc21` [Compound I-26], the IC50 is at most 1 µM. Then `CS(=O)(=O)c1ncc(C(=O)N[C@@H]2CCc3cc(Cl)ccc32)s1` [Compound I-27], with at most 1 µM. With `CNC(=O)c1ccc(C(=O)N[C@@H]2CCc3cc(Cl)ccc32)s1` [Compound I-28], the IC50 was at most 1 µM.

As to `CN(C)C(=O)c1ccc(C(=O)N[C@@H]2CCc3cc(Cl)ccc32)s1` [Compound I-29], the IC50 is at most 1 µM. Turning to `CCS(=O)(=O)c1ccc(C(=O)N[C@@H]2CCc3cc(Cl)ccc32)s1` [Compound I-34], the IC50 is at most 1 µM. As for `COCc1ccc(C(=O)N[C@@H]2CCc3cc(Cl)ccc32)s1` [Compound I-36], the IC50 is at most 1 µM.

Regarding `O=C(N[C@@H]1CCc2cc(Cl)ccc21)c1cnc(Cl)s1` [Compound I-37], the IC50 was at most 1 µM. Under `CN(C)Cc1ccc(C(=O)N[C@@H]2CCc3cc(Cl)ccc32)s1` [Compound I-38] stands 1 to 20 µM; under `CC(=O)N(C)Cc1ccc(C(=O)N[C@@H]2CCc3cc(Cl)ccc32)s1` [Compound I-39], at most 1 µM; under `O=C(N[C@@H]1CCc2cc(Cl)ccc21)c1ccc(S(=O)(=O)N2CC[C@@H](O)C2)s1` [Compound I-40], at most 1 µM.

Consider `O=C(N[C@@H]1CCc2cc(Cl)ccc21)c1ccc(S(=O)(=O)N2CC[C@H](O)C2)s1` [Compound I-41], for which the half-inhibitory concentration (IC50) was at most 1 µM. Regarding `CN1CCN(S(=O)(=O)c2ccc(C(=O)N[C@@H]3CCc4cc(Cl)ccc43)s2)CC1` [Compound I-42], the half-maximal inhibitory concentration (IC50) was at most 1 µM.

As for `CO[C@H]1CCN(S(=O)(=O)c2ccc(C(=O)N[C@@H]3CCc4cc(Cl)ccc43)s2)C1` [Compound I-43], the IC50 is at most 1 µM. Under `CC(=O)NCc1ccc(C(=O)N[C@@H]2CCc3cc(Cl)ccc32)s1` [Compound I-44] stands at most 1 µM; under `O=C(N[C@@H]1CCc2cc(Cl)ccc21)c1ccc(S(=O)(=O)N2CCOCC2)s1` [Compound I-45], at most 1 µM; under `CO[C@@H]1CCN(S(=O)(=O)c2ccc(C(=O)N[C@@H]3CCc4cc(Cl)ccc43)s2)C1` [Compound I-46], at most 1 µM.

Regarding `COCCS(=O)(=O)c1ccc(C(=O)N[C@@H]2CCc3cc(Cl)ccc32)s1` [Compound I-47], the IC50 was at most 1 µM. With `CS(=O)(=O)Nc1ccc(C(=O)N[C@H]2CCc3cc(Cl)ccc32)cc1` [Compound II-3], the 50% inhibitory concentration (IC50) is at least 20 µM. Take `CS(=O)(=O)Nc1ccc(C(=O)N[C@@H]2CCc3cc(Cl)ccc32)cc1` [Compound II-4, N-[(1R)-5-chloroindan-1-yl]-4-(methanesulfonamido)benzamide]: the IC50 is at most 1 µM. Consider `Nc1ccc(C(=O)N[C@@H]2CCc3cc(Cl)ccc32)cc1` [Compound II-9, 4-amino-N-[(1R)-5-chloroindan-1-yl]benzamide], for which the IC50 lay in the range of 1 to 20 µM.

With `CCS(=O)(=O)Nc1ccc(C(=O)N[C@@H]2CCc3cc(Cl)ccc32)cc1` [Compound II-10, N-[(1R)-5-chloroindan-1-yl]-4-(ethylsulfonylamino)benzamide], the concentration for half-maximal inhibition (IC50) is at most 1 µM. `O=C(N[C@@H]1CCc2cc(Cl)ccc21)c1ccc(NS(=O)(=O)C2CC2)cc1` [Compound II-11, N-[(1R)-5-chloroindan-1-yl]-4-(cyclopropylsulfonylamino)benzamide]: the IC50 lay within 1 to 20 µM. `O=C(N[C@@H]1CCc2cc(Cl)ccc21)c1ccc(NS(=O)(=O)C(F)(F)F)cc1` [Compound II-12]: the IC50 is at least 20 µM. As for `CCS(=O)(=O)N(C)c1ccc(C(=O)N[C@@H]2CCc3cc(Cl)ccc32)cc1` [Compound II-13], the IC50 was at most 1 µM.

On to `CN(c1ccc(C(=O)N[C@@H]2CCc3cc(Cl)ccc32)cc1)S(=O)(=O)C1CC1` [Compound II-14], for which the IC50 was at most 1 µM. On to `CCS(=O)(=O)Nc1ccc(C(=O)N[C@H]2CCc3cc(Cl)ccc32)cc1` [Compound II-17, N-[(1S)-5-chloroindan-1-yl]-4-(ethylsulfonylamino)benzamide], for which the IC50 was at least 20 µM. Turning to `O=C(N[C@H]1CCc2cc(Cl)ccc21)c1ccc(NS(=O)(=O)C2CC2)cc1` [Compound II-18, N-[(1S)-5-chloroindan-1-yl]-4-(cyclopropylsulfonylamino)benzamide], the IC50 is above 20 µM. For `CCS(=O)(=O)N(C)c1ccc(C(=O)N[C@H]2CCc3cc(Cl)ccc32)cc1` [Compound II-19], the IC50 was in the range of 1 to 20 µM. Turning to `CN(c1ccc(C(=O)N[C@H]2CCc3cc(Cl)ccc32)cc1)S(=O)(=O)C1CC1` [Compound II-20], the IC50 is 1 to 20 µM.

Take `CN(c1ccc(C(=O)N[C@H]2CCc3cc(Cl)ccc32)cc1)S(=O)(=O)C(F)(F)F` [Compound II-21]: the IC50 lay in the range of 1 to 20 µM. Then `CS(=O)(=O)c1ccc(C(=O)N[C@@H]2CCc3cc(Cl)ccc32)cc1` [Compound II-22], with at most 1 µM; and `CN(C)C(=O)c1ccc(C(=O)N[C@@H]2CCc3cc(Cl)ccc32)cc1` [Compound II-23], with 1 to 20 µM. Under `CNC(=O)c1ccc(C(=O)N[C@@H]2CCc3cc(Cl)ccc32)cc1` [Compound II-24] stands 1 to 20 µM.

`NS(=O)(=O)c1ccc(C(=O)N[C@@H]2CCc3cc(Cl)ccc32)cc1` [Compound II-25]: the IC50 is at most 1 µM.
